What all share (format): cell-based
Assay [1] relates to TNF-α. In words: Whole bovine blood assay, LPS-induced TNF-α. To be noted: fresh whole bovine blood, LPS stimulant, top drug concentration 250 μM. In outline: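 Fresh heparinized bovine whole blood was preincubated with compound 4 h at 37 °C, then stimulated with LPS (final 1 μg/mL) for 18 h at 37 °C. Plasma TNF-α was quantified by MSD U-Plex chemiluminescent immunoassay, normalized to total protein (BCA), and IC50 taken for LPS-induced TNF-α inhibition.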

The test system of assay [2] is IL-6. In words: Whole bovine blood assay, LPS-induced IL-6. To be noted: fresh whole bovine blood, LPS stimulant, top drug concentration 250 μM.
In assay [3] the test system is IL-1β. Briefly: Whole bovine blood assay, LPS-induced IL-1β (inhibition / overstimulation). Conditions: drug concentration giving overstimulation (OS) of LPS-induced IL-1β, top concentration 250 μM. The procedure, abridged: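 IL-1β was quantified by MSD U-Plex chemiluminescence in plasma and normalized to BCA total protein. Bovine blood was pretreated 4 h at 37 °C with compound dilutions before 18 h LPS challenge (1 μg/mL final). Rising IL-1β at high concentrations was recorded as overstimulation.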

For assay [4], the system named is BRD pathogens, M. haemolytica and P. multocida. Briefly: MIC screening panel, BRD pathogens (CLSI broth micro-dilution). Conditions: at least one BRD pathogenic strain, top concentration 64 μg/mL; for MIC: read-out: MIC flag (*) for BRD pathogenic strains. From the text:
Primary screening of the compounds of the invention included the evaluation of antibacterial activity of analogs through determination of microbial inhibition concentration (MIC) as per CLSI guidelines. The screening panel included the relevant BRD pathogens: 1) M. haemolytica (e.g., 12726, 46571 and 49023, all AHDRCC; and 33396 (ATCC)); and 2) P. multocida (e.g., 34135 and 46572 (both AHDRCC) and 43137 (ATCC)). In some instances, H. somni (A700025K) pathogens were also included in the screening panel. The AHDRCC strains originated from the Zoetis BRD/SRD surveillance program and refer to the Animal Health Development and Research Culture Collection. In addition, the screen assessed S. aureus (29213 ATCC) as a representative Gram-positive isolate, E.faecalis (19433 ATCC) as a commensal gram-positive gastrointestinal bacterium and E. coli (100, 3110 and 25922 (ATCC)) for the evaluation of efflux potential. The screening panel BRD pathogens were assessed in determining antibacterial activity of the Formula (1) compounds.
All relevant BRD pathogens were initially screened at a top concentration of 64 μg/mL of a Formula (1) compound in an eleven-point dilution series. […] If an Example was purified further, the MICs moved […] essentially two dilutions across all strains tested in the screening panel.
In-Vitro MIC Model Compounds were analyzed for antibacterial activity against a panel of animal health specific gram-positive and gram-negative clinical strains by diluting compounds in DMSO to an appropriate stock concentration to determine the Minimal Inhibitory Concentration (MIC) via a semi-automated broth micro-dilution method (CLSI reference method) with QC strains and anti-microbial agent(s). Specifically, bacteria were grown overnight on TSA w/5% sheep blood agar plates and diluted in saline buffer to a McFarland Standard 0.5, then further diluted in cation-ion adjusted Mueller Hinton Broth to a final concentration of approximately 5×10^5 CFU/mL. 100 μL of inoculated media was added to 96-well plate(s) with 3 μL of serially diluted compound in each row. Depending on strain (see CLSI reference method), bacteria were incubated 18-22 hours at 35-37° C. in ambient air, with 5% CO2 or anaerobically (up to 48 hours).

Each structure is given as a SMILES string. Like-named read-outs stand apart in the source and are kept apart here. Marks after values point to notes of the source that are not given here. Where only a bound is given, the exact number is not on record here.

Take `CC[C@H]1OC(=O)[C@H](C)[C@@H](O)[C@H](C)[C@@H](O[C@@H]2O[C@H](C)C[C@H](N(C)S(=O)(=O)c3scnc3C)[C@H]2Oc2ccc(F)cc2)[C@](C)(O)C[C@@H](C)CN[C@H](C)[C@@H](O)[C@]1(C)O` [Example A-26]: the IC50 came to 130 µM in assay [1] and 49 µM in assay [2]. Moreover, the minimal effective concentration in assay [3] is recorded as 16 µM. Further, in assay [4] (Table A), the “MIC flag (*) for BRD pathogenic strains” value is reported as “A-26* (MIC ≤64 μg/mL for at least one BRD pathogenic strain)”.

In the case of `CCCNC[C@]1(O)[C@H](C)OC(O[C@H]2[C@H](C)[C@@H](O[C@@H]3O[C@H](C)C[C@H](N(C)S(=O)(=O)c4cc(Br)c(Br)s4)[C@H]3Oc3ccc(OC)cc3)[C@](C)(O)C[C@@H](C)CN[C@H](C)[C@@H](O)[C@](C)(O)[C@@H](CC)OC(=O)[C@@H]2C)C[C@@]1(C)OC` (stereo partly drawn) [Example B-105, 4,5-dibromo-N-[(2S,3R,4S,6R)-2-[[(2R,3S,4R,5R,8R,10R,11R, 12S, 13S, 14R)-2-ethyl-3,4, 10-trihydroxy-13-[(4R,5S,6S)-5-hydroxy-4-methoxy-4,6-dimethyl-5-(propylaminomethyl)oxan-2-yl]oxy-3,5,8, 10, 12,14-hexamethyl-15-oxo-1-oxa-6-azacyclopentadec-11-yl]oxy]-3-(4-methoxyphenoxy)-6-methyloxan-4-yl]-N-methylthiophene-2-sulfonamide], the values for the IC50 in assay [1] (Bos taurus) and in assay [2] (Bos taurus) were 12 µM and 7 µM, respectively. Moreover, in assay [3] (Bos taurus, 18 h), the minimal effective concentration came out at 3 µM. Also, in assay [4] (Table B), the MIC is ≤ 64 µg/mL.

As to `CC[C@H]1OC(=O)[C@H](C)[C@@H](OC2CC(C)(OC)C(O)(CN3CCCCC3)[C@@H](C)O2)[C@H](C)[C@@H](O[C@@H]2O[C@H](C)C[C@H](N(C)S(=O)(=O)c3ccc(Cl)cc3)[C@H]2O)[C@](C)(O)C[C@@H](C)CN(C)[C@H](C)[C@@H](O)[C@]1(C)O` (stereo partly drawn) [Example C-38, 4-chloro-N-((2S,3R,4S,6R)-2-(((2R,3S,4R,5R,8R,10R,11R,12S,13S,14R)-2-ethyl-3,4,10-trihydroxy-13-(((6R)-5-hydroxy-4-methoxy-4,6-dimethyl-5-(piperidin-1-ylmethyl)tetrahydro-2H-pyran-2-yl)oxy)-3,5,6,8, 10, 12, 14-heptamethyl-15-oxo-1-oxa-6-azacyclopentadecan-11-yl)oxy)-3-hydroxy-6-methyltetrahydro-2H-pyran-4-yl)-N-methylbenzenesulfonamide], the figures for the IC50 in assay [1] (Bos taurus) and in assay [2] (Bos taurus) were 9 µM and 4 µM, respectively. The minimal effective concentration in assay [3] (Bos taurus, 18 h) is 28 µM. Also, the minimal inhibitory concentration (MIC) in assay [4] (Table C) is ≤ 64 µg/mL.

Regarding `CC(=O)O.CC[C@H]1OC(=O)[C@H](C)[C@@H](O[C@H]2C[C@@](C)(OC)[C@](O)(CN3CCCCC3)[C@H](C)O2)[C@H](C)[C@@H](O[C@@H]2O[C@H](C)C[C@H](N(C)S(=O)(=O)Nc3ccc(C(F)(F)F)cc3)[C@H]2O)[C@](C)(O)C[C@@H](C)CN(C)[C@H](C)[C@@H](O)[C@]1(C)O` [Example C-57, (2R,3S,4R,5R,8R,10R,11R,12S,13S,14R)-2-ethyl-3,4, 10-trihydroxy-13-[(2R,4R,5S,6S)-5-hydroxy-4-methoxy-4,6-dimethyl-5-(piperidin-1-ylmethyl)oxan-2-yl]oxy-11-[(2S,3R,4S,6R)-3-hydroxy-6-methyl-4-[methyl-[[4-(trifluoromethyl)phenyl]sulfamoyl]amino]oxan-2-yl]oxy-3,5,6,8, 10, 12, 14-heptamethyl-15-oxo-1-oxa-6-azacyclopentadecane, acetic acid], the IC50 is 6 µM in assay [1] and 9 µM in assay [2]. The same compound registered a minimal effective concentration in assay [3] of 16 µM. In addition, the “MIC flag (*) for BRD pathogenic strains” value in assay [4] (Table C) is recorded as “C-57* (MIC ≤64 μg/mL for at least one BRD pathogenic strain)”.

(Values after patent publication US20250236616A1, “IMMUNOMODULATING AZALIDES” (Zoetis Services LLC, priority 2021, published 2025).)
